Laboratory results: patent publication US20210145801A1, “THERAPY FOR PROTEIN MISFOLDING DISEASE” (WREN THERAPEUTICS LIMITED, priority 2018, published 2021)

Each compound was assayed against T1, Aβ42 (Homo sapiens, UniProt P05067) (assay: ThT kinetic assay of Aβ42 aggregation (unseeded)). Settings: 2 μM Aβ42; 5× drug:protein concentration.
T1 construct: made in house; host or cells: E. coli BL21 Gold (DE3)
Assay type: biochemical
From the text: The recombinant Aβ(M1-42) peptide ([…]-SNKGAIIGLMVGGVVIA [SEQ ID NO: 1]), here called Aβ42, was expressed in the E. coli BL21 Gold (DE3) strain (Stratagene, Calif., U.S.A.) and purified as described previously with slight modifications. Briefly, the purification procedure involved sonication of E. coli cells, dissolution of inclusion bodies in 8 M urea, and ion exchange in batch mode on diethylaminoethyl cellulose resin and lyophylization. The lyophilized fractions were further purified using Superdex 75 HR 26/60 column (GE Healthcare, Buckinghamshire, U.K.) and eluates were analyzed using SDS-PAGE for the presence of the desired protein product. The fractions containing the recombinant protein were combined, frozen using liquid nitrogen, and lyophilized again.
Except for Netoglitazone, which was custom synthesised by GVK BIO, all small molecules were purchased with a purity greater than 99%. Small molecules were first solubilized in 100% DMSO to a concentration of 5 mM, and then diluted in the peptide solution to reach a final DMSO concentration of maximum 1-3%. We verified that the addition of DMSO in the reaction mixture has no effect on Aβ42 aggregation.
Solutions of monomeric peptides were prepared by dissolving the lyophilized Aβ42 peptide in 6 M GuHCl. Monomeric forms were purified from potential oligomeric species and salt using a Superdex 75 10/300 GL column (GE Healthcare) at a flowrate of 0.5 mL/min, and were eluted in 20 mM sodium phosphate buffer, pH 8 supplemented with 200 μM EDTA and 0.02% NaN3. The centre of the peak was collected, and the peptide concentration was determined from the absorbance of the integrated peak area using ε280=1490 L mol^−1 cm^−1. The obtained monomer was diluted with buffer to the desired concentration and supplemented with 20 μM Thioflavin T (ThT) from a 1 mM stock. All samples were prepared in low binding Eppendorf tubes on ice using careful pipetting to avoid introduction of air bubbles. Each sample was then pipetted into multiple wells of a 96-well half-area, low-binding, clear bottom and PEG coating plate (Corning 3881), 80 μL per well. Aβ42 kinetics have been performed in the absence or the presence of Netoglitazone, Mitoglitazone, Rosiglotazone, Rivoglitazone, Pioglitazone, Ciglitazone, Englitazone, Darglitazone, Troglitazone and Balaglitazone.
The time evolution of the total fibril mass concentration is described as a function only of the initial conditions and the rate constants of the system by the integrated rate law given by Eq. (54) in Cohen et al., J Chem Phys 135, 065106, 2011.
These are related to the rate of formation of new aggregates through primary pathways λ=√{square root over (2k+knm(0)^n^c)} and through secondary pathways κ=√{square root over (2k+k2m(0)^n^2^+1)}, where the initial concentration of soluble monomers is denoted by m(0), nc and n2 describe the dependencies of the primary and secondary pathways on the monomer concentration (nc=n2=2 for Aβ42), and kn, k+ and k2 are the rate constants of the primary nucleation, elongation and secondary nucleation, respectively (Cohen et al., Proc Natl Acad Sci USA, 110(24), 9758-63, 2013).
Inhibitors can interfere with the aggregation process by inhibiting one or more of the individual microscopic steps.

T1 sequence (P05067 671-713): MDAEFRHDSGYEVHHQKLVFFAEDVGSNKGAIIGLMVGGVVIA

Row | Compound | Delay of Aβ42 aggregation
1 | CCc1ccc(C(=O)COc2ccc(CC3SC(=O)NC3=O)cc2)nc1 (centres unmarked) [Mitoglitazone] | little to no delay of Aβ42 aggregation was observed
2 | COc1ccc2nc(COc3ccc(CC4SC(=O)NC4=O)cc3)n(C)c2c1 (centres unmarked) [Rivoglitazone] | little to no delay of Aβ42 aggregation was observed
3 | Cn1c(COc2ccc(CC3SC(=O)NC3=O)cc2)nc2ccccc2c1=O (centres unmarked) [Balaglitazone] | little to no delay of Aβ42 aggregation was observed
4 | Cc1oc(-c2ccccc2)nc1CCC(=O)c1ccc(CC2SC(=O)NC2=O)cc1 (centres unmarked) [Darglitazone] | observed to delay Aβ42 aggregation
5 | O=C1NC(=O)C(Cc2ccc3c(c2)CC[C@H](Cc2ccccc2)O3)S1 (some centres unmarked) [Englitazone] | significantly delayed aggregation
